What follows are compounds tested on ST2 cells, murine bone marrow-derived stromal cells (assay: Osteoblast differentiation test (alkaline phosphatase activity)). Conditions: Mus musculus, ST-2, 96 h, at 0.03 μg/mL, four days of culturing, control group (0.1% DMSO) set at 100%, read-out: increase (%) in alkaline phosphatase activity.
Type: cell-based
Procedure: ST2 cells, murine bone marrow-derived stromal cells, (obtained from RIKEN) were used.
In this test, α-MEM media (obtained from GIBCO BRL Cat. No. 10370-021) containing 10% (v/v) of inactivated calf serum (obtained from Hyclone Laboratories, Inc.) and 1% (v/v) of Penicillin-Streptomycin Liquid (obtained from GIBCO BRL Cat. No. 15140-122) (hereinbelow, abbreviated as 10%-FBS-αMEM) were used. In this test, all culturing was performed in a CO2 incubator (37° C., 95% humidity, 5% CO2).
The aforementioned cells were detached with 2 mL of a 0.25% trypsin solution (obtained from GIBCO BRL Cat. No. 15050-065) and dispersed in 10 mL of 10%-FBS-αMEM. Subsequently, the cells were collected by centrifugation (25° C., 800 rpm, five minutes). Then, a cell suspension containing 40000 of the cells/mL of 10%-FBS-αMEM was prepared. The cell suspension was then dispensed into 96-well plates (the product of Falcon), 100 μL per well, at a density of 4000 cells/well, followed by culturing for 24 hours. To the wells except for the below-described well containing a control group, the compound was dispensed at final concentrations of 0.01, 0.03, 0.1, and 0.3 μg/ml. To the well of a control group, DMSO was dispensed at a final concentration of 0.1% (v/v). After four days of culturing, the activity of alkaline phosphatase (ALP) was measured in each group.
The measurement of ALP activity was performed as follows. That is, the medium in each well of the culture plates was completely removed. Each well was then washed by dispensing 100 μL of Dulbecco's phosphate buffer (obtained from GIBCO BRL Cat. No. 14190-144) and then removing it. A cell lysate solution containing 10 mM MgCl2 and 2% (v/v) TritonX-100 (Sigma) was prepared and dispensed at 50 μL/well, followed by stirring at room temperature for five minutes. An ALP substrate solution containing 50 mM diethanolamine (Wako pure chemical industries, Ltd., Cat. No. 099-03112) and 20 mM p-nitrophenyl phosphate (Wako pure chemical industries, Ltd., Cat. No. 147-02343) was prepared and dispensed at 50 μL/well, and the plates were left to stand at room temperature for 10 minutes. Subsequently, absorbance was measured by a microplate reader (Bio-Rad Laboratories, Inc.). Setting the measurement value of the control group of each plate at 100%, the increase (%) in alkaline phosphatase activity in the test compound-addition group was calculated, which was assessed as the degree of osteoblast differentiation.
For COCCOC1CCN(c2cncc3ccc(C(N)=O)nc23)CC1 [Example 1, 8-[4-(2-Methoxyethoxy)piperidin-1-yl]-1,6-naphthyridine-2-carboxamide], the activity at 0.03 µg/mL was ≥ 200%.
CCOCCOC1CCN(c2cncc3ccc(C(N)=O)nc23)CC1 [Example 2, 8-[4-(2-Ethoxyethoxy)piperidin-1-yl]-1,6-naphthyridine-2-carboxamide] was tested, and the activity at 0.03 µg/mL was ≥ 200%.
NC(=O)c1ccc2cncc(N3CCC(OCCOCC4CCOC4)CC3)c2n1 (centres unmarked) [Example 5, 8-{4-[2-(Tetrahydrofuran-3-ylmethoxy)ethoxy]piperidin-1-yl}-1,6-naphthyridine-2-carboxamide] was tested, and the activity at 0.03 µg/mL was ≥ 200%.
With NC(=O)c1ccc2cncc(N3CCC(OCCOC4CCOCC4)CC3)c2n1 [Example 6, 8-{4-[2-(Tetrahydro-2H-pyran-4-yloxy)ethoxy]piperidin-1-yl}-1,6-naphthyridine-2-carboxamide] the activity at 0.03 µg/mL was ≥ 200%.
For CN(C)C(=O)COC1CCN(c2cncc3ccc(C(N)=O)nc23)CC1 [Example 8, 8-{4-[2-(Dimethylamino)-2-oxoethoxy]piperidin-1-yl}-1,6-naphthyridine-2-carboxamide], the activity at 0.03 µg/mL was ≥ 200%.
CN(CCOC1CCN(c2cncc3ccc(C(N)=O)nc23)CC1)S(C)(=O)=O [Example 9, 8-(4-{2-[Methyl(methylsulfonyl)amino]ethoxy}piperidin-1-yl)-1,6-naphthyridine-2-carboxamide] was tested, and the activity at 0.03 µg/mL was ≥ 200%.
With CN(C)C(=O)N1CCN(c2cncc3ccc(C(N)=O)nc23)CC1 [Example 10, 8-[4-(Dimethylcarbamoyl)piperazin-1-yl]-1,6-naphthyridine-2-carboxamide] the activity at 0.03 µg/mL was ≥ 200%.
COCC1CCCN(c2cncc3ccc(C(N)=O)nc23)C1 (centres unmarked) [Example 11, 8-[3-(Methoxymethyl)piperidin-1-yl]-1,6-naphthyridine-2-carboxamide] was tested, and the activity at 0.03 µg/mL was ≥ 200%.
With NC(=O)c1ccc2cncc(N3CCCCC3)c2c1 [Example 16, 4-(Piperidin-1-yl)isoquinoline-6-carboxamide] the activity at 0.03 µg/mL was ≥ 200%.
COCC1CCCN(c2cncc3ccc(C(N)=O)cc23)C1 (centres unmarked) [Example 17, 4-[3-(Methoxymethyl)piperidin-1-yl]isoquinoline-6-carboxamide] was tested, and the activity at 0.03 µg/mL was ≥ 200%.
For NC(=O)c1ccc2cncc(N3CCN(c4nccs4)CC3)c2c1 [Example 18, 4-[4-(1,3-Thiazol-2-yl)piperazin-1-yl]isoquinoline-6-carboxamide], the activity at 0.03 µg/mL was ≥ 200%.
For NC(=O)c1ccc2cncc(N3CCC(OCCOC4CCCCO4)CC3)c2c1 (centres unmarked) [Example 19, 4-{4-[2-(Tetrahydro-2H-pyran-2-yloxy)ethoxy]piperidin-1-yl}isoquinoline-6-carboxamide], the activity at 0.03 µg/mL was ≥ 200%.
In the case of NC(=O)c1ccc2cncc(N3CCC(OCCO)CC3)c2c1 [Example 20, 4-[4-(2-Hydroxyethoxy)piperidin-1-yl]isoquinoline-6-carboxamide], the activity at 0.03 µg/mL is reported as ≥ 200%.
With CC(C)(C)OC(=O)NCCOCC1CCCN(c2cncc3ccc(C(N)=O)cc23)C1 (centres unmarked) [Example 21, Tert-butyl (2-{[1-(6-carbamoylisoquinolin-4-yl)piperidin-3-yl]methoxy}ethyl)carbamate] the activity at 0.03 µg/mL was ≥ 200%.
With NC(=O)c1ccc2cncc(N3CCC(O)(c4ccccc4)CC3)c2c1 [Example 23, 4-(4-Hydroxy-4-phenylpiperidin-1-yl)isoquinoline-6-carboxamide] the activity at 0.03 µg/mL was ≥ 200%.
NC(=O)c1ccc2cncc(N3CC=C(c4ccccc4)CC3)c2c1 [Example 24, 4-(4-Phenyl-3,6-dihydropyridine-1(2H)-yl)isoquinoline-6-carboxamide] was tested, and the activity at 0.03 µg/mL was ≥ 200%.
NC(=O)c1ccc2cncc(N3CCN(c4ccccc4)CC3)c2n1 [Example 28] was tested, and the activity at 0.03 µg/mL was ≥ 200%.
In the case of NC(=O)c1ccc2cncc(N3CCN(c4cccc(F)c4)CC3)c2n1 [Example 32], the activity at 0.03 µg/mL is reported as ≥ 200%.
For NC(=O)c1ccc2cncc(-n3cccc3)c2c1 [Example 34], the activity at 0.03 µg/mL was ≥ 200%.
In the case of NC(=O)c1ccc2cncc(N3CCOCC3)c2c1 [Example 35], the activity at 0.03 µg/mL is reported as ≥ 200%.
For NC(=O)c1ccc2cncc(N3CCCC3)c2c1 [Example 36], the activity at 0.03 µg/mL was ≥ 200%.
With COCC1CCN(c2cncc3ccc(C(N)=O)cc23)CC1 [Example 37] the activity at 0.03 µg/mL was ≥ 200%.
With CCOC1CCCN(c2cncc3ccc(C(N)=O)cc23)C1 (centres unmarked) [Example 38] the activity at 0.03 µg/mL was ≥ 200%.
For COC[C@H]1CCCN(c2cncc3ccc(C(N)=O)cc23)C1 [Example 39], the activity at 0.03 µg/mL was ≥ 200%.
For COC[C@@H]1CCCN(c2cncc3ccc(C(N)=O)cc23)C1 [Example 40], the activity at 0.03 µg/mL was ≥ 200%.
COCCC1CCCN(c2cncc3ccc(C(N)=O)cc23)C1 (centres unmarked) [Example 41] was tested, and the activity at 0.03 µg/mL was ≥ 200%.
In the case of NC(=O)c1ccc2cncc(N3CCC(c4ccccc4)CC3)c2c1 [Example 42], the activity at 0.03 µg/mL is reported as ≥ 200%.
NC(=O)c1ccc2cncc(N3CCC(F)(F)CC3)c2c1 [Example 43] was tested, and the activity at 0.03 µg/mL was ≥ 200%.
For NC(=O)c1ccc2cncc(N3CCC(C(F)(F)F)CC3)c2c1 [Example 44], the activity at 0.03 µg/mL was ≥ 200%.
In the case of NC(=O)c1ccc2cncc(N3CCC(F)CC3)c2c1 [Example 45], the activity at 0.03 µg/mL is reported as ≥ 200%.
For CC(=O)C1(c2ccccc2)CCN(c2cncc3ccc(C(N)=O)cc23)CC1 [Example 46], the activity at 0.03 µg/mL was ≥ 200%.
CC1CCN(c2cncc3ccc(C(N)=O)cc23)CC1 [Example 47] was tested, and the activity at 0.03 µg/mL was ≥ 200%.
With CC(=O)c1ccn(-c2cncc3ccc(C(N)=O)cc23)c1 [Example 48] the activity at 0.03 µg/mL was ≥ 200%.
In the case of NC(=O)c1ccc2cncc(N3CCN(c4ccc(Cl)cc4)CC3)c2c1 [Example 49], the activity at 0.03 µg/mL is reported as ≥ 200%.
With CC(=O)c1ccc(N2CCN(c3cncc4ccc(C(N)=O)cc34)CC2)cc1 [Example 50] the activity at 0.03 µg/mL was ≥ 200%.
For NC(=O)c1ccc2cncc(N3CCC(COC4CCCCO4)CC3)c2c1 (centres unmarked) [Example 52], the activity at 0.03 µg/mL was ≥ 200%.
In the case of NC(=O)c1ccc2cncc(N3CCC(C4CCCCC4)CC3)c2c1 [Example 53], the activity at 0.03 µg/mL is reported as ≥ 200%.
For NC(=O)c1ccc2cncc(N3CCC(O)(c4ccc(Cl)cc4)CC3)c2c1 [Example 54], the activity at 0.03 µg/mL was ≥ 200%.
With NC(=O)c1ccc2cncc(N3CCC(CO)CC3)c2c1 [Example 55] the activity at 0.03 µg/mL was ≥ 200%.
In the case of NC(=O)c1ccc2cncc(N3CCCC(CO)C3)c2c1 (centres unmarked) [Example 56], the activity at 0.03 µg/mL is reported as ≥ 200%.
NC(=O)c1ccc2cncc(N3CCN(c4ccc([N+](=O)[O-])cc4)CC3)c2c1 [Example 57] was tested, and the activity at 0.03 µg/mL was ≥ 200%.
For NC(=O)c1ccc2cncc(N3CCc4ccccc4C3)c2c1 [Example 59], the activity at 0.03 µg/mL was ≥ 200%.
For NC(=O)c1ccc2cncc(N3CCN(c4cccc(F)c4)CC3)c2c1 [Example 60], the activity at 0.03 µg/mL was ≥ 200%.
For Cc1ccc(N2CCN(c3cncc4ccc(C(N)=O)cc34)CC2)cc1 [Example 61], the activity at 0.03 µg/mL was ≥ 200%.
With N#Cc1ccc(N2CCN(c3cncc4ccc(C(N)=O)cc34)CC2)cc1 [Example 62] the activity at 0.03 µg/mL was ≥ 200%.
NC(=O)c1ccc2cncc(N3CCCN(c4ccccc4)CC3)c2c1 [Example 63] was tested, and the activity at 0.03 µg/mL was ≥ 200%.
In the case of NC(=O)c1ccc2cncc(N3CCC(Oc4ccccc4)CC3)c2c1 [Example 64], the activity at 0.03 µg/mL is reported as ≥ 200%.
NC(=O)c1ccc2cncc(N3CCC(C4CCOCC4)CC3)c2c1 [Example 65] was tested, and the activity at 0.03 µg/mL was ≥ 200%.
In the case of Cc1ccn(-c2cncc3ccc(C(N)=O)cc23)c1 [Example 66], the activity at 0.03 µg/mL is reported as ≥ 200%.
With NC(=O)c1ccc2cncc(N3CC[C@@H]4CCCC[C@H]4C3)c2c1 [Example 67] the activity at 0.03 µg/mL was ≥ 200%.
With NC(=O)c1ccc2cncc(N3CCC(OCC4CCCO4)CC3)c2c1 (centres unmarked) [Example 68] the activity at 0.03 µg/mL was ≥ 200%.
For CC(C)(O)C1CCN(c2cncc3ccc(C(N)=O)cc23)CC1 [Example 69], the activity at 0.03 µg/mL was ≥ 200%.
In the case of NC(=O)c1ccc2cncc(N3CCC(C(=O)c4ccc(F)cc4)CC3)c2c1 [Example 70], the activity at 0.03 µg/mL is reported as ≥ 200%.
With NC(=O)c1ccc2cncc(N3CCC(CCOC4CCOCC4)CC3)c2c1 [Example 71] the activity at 0.03 µg/mL was ≥ 200%.
CC1CCN(c2cncc3ccc(C(N)=O)cc23)C1 (centres unmarked) [Example 72] was tested, and the activity at 0.03 µg/mL was ≥ 200%.
With COCC1CCN(c2cncc3ccc(C(N)=O)cc23)C1 (centres unmarked) [Example 73] the activity at 0.03 µg/mL was ≥ 200%.
CN(C)C(=O)C1CCN(c2cncc3ccc(C(N)=O)cc23)CC1 [Example 74] was tested, and the activity at 0.03 µg/mL was ≥ 200%.
In the case of NC(=O)c1ccc2cncc(N3CCC(OC4CCCCO4)CC3)c2c1 (centres unmarked) [Example 75], the activity at 0.03 µg/mL is reported as ≥ 200%.
For COC1CCN(c2cncc3ccc(C(N)=O)cc23)CC1 [Example 76], the activity at 0.03 µg/mL was ≥ 200%.
